In patent US20160046616A1, “NRF2 SMALL MOLECULE INHIBITORS FOR CANCER THERAPY” (THE JOHNS HOPKINS UNIVERSITY, priority 2013, published 2016) one finds IC50 data, which are given here for 51 compounds.

Where two headings read alike, the source gives them in different places.

In test [1] the test system is A549 NRF2-ARE-Fluc stable cell line. Description: A549 Nrf2 assay: NRF2-ARE firefly luciferase reporter gene assay. The format is cell-based. Conditions: read-out: Potency of inhibition, A549. An outline of the steps:
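A549 cells (Keap1 loss-of-function, constitutive NRF2) stably carrying ARE-driven firefly luciferase; compound treatment 18–24 h at 37 °C, 0.46% DMSO final.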
In general terms: A reporter such as luciferase makes a cellular process visible.

In test [2] the test system is H1437 NRF2-ARE-Fluc stable cell line. Description: H1437 Nrf2 assay: NRF2-ARE firefly luciferase reporter gene assay. The test is classed as cell-based. As to conditions: read-out: Potency of inhibition, H1437.
Where [3] appears, read: Homo sapiens, NCI-H1437, H1437 NRF2-ARE-Fluc stable cell line.

For the compound `Cc1cccc(Cc2cnc(NC(=O)c3ccn(-c4ccccc4)n3)s2)c1` [Compound 217], the IC50 in test [1] (Homo sapiens) and in test [2] (setting [3]) was 5 to 25 µM throughout.
Regarding `CCOC(=O)N1CCN(Cc2ccc(C(=O)Nc3ccc([S+](=O)([O-])N4CCOCC4)cc3)cc2)CC1` [Compound 202], the IC50 in test [1] (Homo sapiens) and in test [2] (setting [3]) was 5 to 25 µM throughout.
As to `Cc1ccccc1S(=O)(=O)N1CCc2cc(-c3nc(NC(=O)Cc4ccccn4)sc3C)ccc21` [Compound 127], the IC50 in test [1] (Homo sapiens) and in test [2] (setting [3]) was 5 to 25 µM in each case.
With `O=C(Nc1ccc(S(=O)(=O)N2CCOCC2)cc1)c1ccc(CN2Cc3ccccc3C2)cc1` [Compound 204], the IC50 in test [1] (Homo sapiens) and in test [2] (setting [3]) was below 5 µM in each case.
As for `Cc1ccccc1C(=O)N1CCc2cc(-n3cc(NC(=O)Cc4ccccc4)cn3)ccc21` [Compound 100], the IC50 in test [1] (Homo sapiens) and in test [2] (setting [3]) was 5 to 25 µM in each case.
In the case of `O=C(Nc1ccc(S(=O)(=O)N2CCOCC2)cc1)c1ccc(CN2CCC(c3ccccc3)CC2)cc1` [Compound 205], the IC50 in test [1] (Homo sapiens) and in test [2] (setting [3]) was below 5 µM each time.
For the compound `O=C(Nc1cccc(Cc2ccccc2)n1)c1ccc(-c2cccc([N+](=O)[O-])c2)o1` [Compound 142], the IC50 in test [1] (Homo sapiens) is 5 to 25 µM; in test [2] (setting [3]), above 25 µM.
For `O=C(Nc1ncc(-c2ccccc2)s1)c1ccc(-c2cccc([N+](=O)[O-])c2)o1` [Compound 82], in that order: 5 to 25 µM and above 25 µM.
For `Cc1ccccc1C(=O)N1CCc2cc(-c3nc(NC(=O)Cc4cccc(OCCOCCOCCNC(=O)CCCC[C@@H]5SC[C@@H]6NC(=O)N[C@@H]65)c4)sc3C)ccc21` [Compound 240], in that order: 5 to 25 µM and below 5 µM.
For `Cc1ccccc1CC(=O)Nc1nc(-c2ccc3c(c2)CCN3S(=O)(=O)c2ccccc2C)c(C)s1` [Compound 128], in that order: below 5 µM and below 5 µM.
For the compound `Cc1ccccc1C(=O)n1ccc2cc(-c3cccc(NC(=O)Cc4ccccc4)n3)cnc21` [Compound 76], the IC50 in test [1] (Homo sapiens) was 5 to 25 µM; in test [2] (setting [3]), above 25 µM.
The corresponding values for `Cc1ccccc1C(=O)N1CCc2cc(-c3cccc(NC(=O)Cc4ccc5c(c4)OCO5)n3)ccc21` [Compound 28] are 5 to 25 µM and above 25 µM.
Turning to `Cc1ccccc1S(=O)(=O)N1CCc2cc(-c3nc(NC(=O)Cc4cccc(F)c4)sc3C)ccc21` [Compound 126], the IC50 in test [1] was below 5 µM; in test [2] (H1437 NRF2-ARE-Fluc stable cell line), above 25 µM.
As for `O=C(Nc1ncc(Cc2ccc(C(F)(F)F)cc2)s1)c1ccc(-c2cccnc2)o1` [Compound 27], the IC50 was 5 to 25 µM in test [1] (Homo sapiens) and below 5 µM in test [2] (setting [3]).
Turning to `Cc1ccccc1C(=O)n1ncc2cc(-c3cccc(NC(=O)Cc4ccccc4)n3)ccc21` [Compound 95], the results for the IC50 in test [1] (Homo sapiens) and in test [2] (setting [3]) were below 5 µM and 5 to 25 µM, respectively.
For the compound `CCN(CC)S(=O)(=O)c1ccc(NC(=O)c2ccc(CN3CCc4ccccc4C3)cc2)cc1` [compound 153], the IC50 in test [1] (Homo sapiens) and in test [2] (setting [3]) was below 5 µM in each case.
In the case of `Cc1cc(Cn2ccc(C(=O)Nc3ncc(Cc4ccc(C(F)(F)F)cc4)s3)n2)ccn1` [Compound 191], the IC50 in test [1] (Homo sapiens) and in test [2] (setting [3]) was below 5 µM throughout.
For `O=C(Nc1cc(Cc2ccccc2)ccn1)c1ccc(-c2cccc([N+](=O)[O-])c2)o1` [Compound 150], the IC50 was below 5 µM in test [1] (Homo sapiens) and above 25 µM in test [2] (setting [3]).
The corresponding values for `Cc1sc(NC(=O)Cc2ccc3c(c2)OCO3)nc1-c1ccc2c(c1)CCN2C(=O)c1ccccc1OC(F)(F)F` [Compound 114] are below 5 µM and above 25 µM.
For `Cc1ccc(C(=O)Nc2ccc(S(=O)(=O)N3CCOCC3)cc2)cc1` [compound 51], in that order: 5 to 25 µM and above 25 µM.
As for `CC1=C(C(=O)N2CCc3cc(-c4nc(NC(=O)Cc5ccc6c(c5)OCO6)sc4C)ccc32)OCCO1` [Compound 162], the IC50 in test [1] (Homo sapiens) and in test [2] (setting [3]) was below 5 µM in each case.
On to `Cc1ccccc1S(=O)(=O)N1CCc2cc(-c3nc(NC(=O)Cc4ccncc4)sc3C)ccc21` [Compound 136], for which the IC50 in test [1] (Homo sapiens) and in test [2] (setting [3]) was below 5 µM in each case.
As for `COc1ccc(CC(=O)Nc2nc(-c3ccc4c(c3)CCN4C(=O)c3cccnc3C)c(C)s2)cc1` [Compound 196], the IC50 in test [1] (Homo sapiens) and in test [2] (setting [3]) was below 5 µM in each case.
As for `Cc1ccccc1CCNC(=O)c1ccc(Cl)c(S(=O)(=O)N2CC(C)OC(C)C2)c1` (stereo not drawn) [Compound 44], the IC50 in test [1] (Homo sapiens) and in test [2] (setting [3]) was 5 to 25 µM in each case.
In the case of `Cc1nc(C(=O)N2CCc3cc(-c4nc(NC(=O)Cc5ccc6c(c5)OCO6)sc4C)ccc32)c(C)o1` [Compound 157], the IC50 in test [1] (Homo sapiens) and in test [2] (setting [3]) was below 5 µM throughout.
With `Cc1ccccc1C(=O)N1CCc2cc(-c3ccnc(NC(=O)Cc4ccccc4)n3)ccc21` [Compound 102], the IC50 is 5 to 25 µM in test [1] (Homo sapiens) and above 25 µM in test [2] (setting [3]).
Take `COc1ccc(CC(=O)Nc2nc(-c3ccc4c(c3)CCN4C(=O)c3ccccc3C)c(C)s2)cn1` [Compound 112]: the IC50 in test [1] (Homo sapiens) and in test [2] (setting [3]) was below 5 µM each time.
In the case of `Cc1ccccc1S(=O)(=O)N1CCc2cc(-c3nc(NC(=O)Cc4cccc(C(F)(F)F)c4)sc3C)ccc21` [Compound 132], the IC50 in test [1] (Homo sapiens) and in test [2] (setting [3]) was 5 to 25 µM throughout.
With `O=C(Nc1ccc(S(=O)(=O)N2CCNCC2)cc1)c1ccc(CN2CCc3ccccc3C2)cc1` [compound 154], the IC50 in test [1] (Homo sapiens) was 5 to 25 µM; in test [2] (setting [3]), above 25 µM.
Turning to `O=C(Nc1ncc(Cc2ccc(C(F)(F)F)cc2)s1)c1cnc(-c2ccccc2)s1` [Compound 99], the IC50 in test [1] (Homo sapiens) was 5 to 25 µM; in test [2] (setting [3]), above 25 µM.
The corresponding values for `Cc1ccccc1C(=O)n1ccc2cc(-c3nc(NC(=O)Cc4ccc5c(c4)OCO5)sc3C)ccc21` [Compound 30] are 5 to 25 µM and 5 to 25 µM.
The corresponding values for `CCN(CC)S(=O)(=O)c1cccc(C(=O)Nc2ccc(C#N)cc2)c1` [Compound 32] are below 5 µM and 5 to 25 µM.
Take `Cc1ccccc1C(=O)N1CCc2cc(-c3nc(NC(=O)CN4CCCCC4)sc3C)ccc21` [Compound 66]: the IC50 in test [1] (Homo sapiens) and in test [2] (setting [3]) was 5 to 25 µM each time.
In the case of `Cc1ccccc1C(=O)N1CCc2cc(-c3nc(NC(=O)Cc4ccc(O)cc4)sc3C)ccc21` [Compound 235, 2-(4-hydroxyphenyl)-N-(5-methyl-4-(1-(2-methylbenzoyl)indolin-5-yl)thiazol-2-yl)acetamide], the IC50 in test [1] (Homo sapiens) and in test [2] (setting [3]) was 5 to 25 µM throughout.
As for `Cc1ccccc1S(=O)(=O)N1CCc2cc(-c3nc(NC(=O)Cc4ccccc4F)sc3C)ccc21` [Compound 122], the IC50 in test [1] (Homo sapiens) and in test [2] (setting [3]) was below 5 µM each time.
On to `O=C(Nc1ncc(Cc2ccc(C(F)(F)F)cc2)s1)c1ccn(-c2cccc([N+](=O)[O-])c2)n1` [Compound 117], for which the IC50 in test [1] (Homo sapiens) was below 5 µM; in test [2] (setting [3]), above 25 µM.
In the case of `O=C(Nc1ncc(Cc2ccc(C(F)(F)F)cc2)s1)c1ccn(CCN2CCOCC2)n1` [Compound 231], the results for the IC50 in test [1] (Homo sapiens) and in test [2] (setting [3]) were 5 to 25 µM and below 5 µM, respectively.
With `CCN(CC)C(=O)c1ccc(S(=O)(=O)N2CCC(c3nc4ccccc4s3)CC2)cc1` [Compound 37], the IC50 in test [1] (Homo sapiens) and in test [2] (setting [3]) was below 5 µM throughout.
`Cc1sc(NC(=O)Cc2ccc3c(c2)OCO3)nc1-c1ccc2c(c1)CCN2C(=O)c1ccccc1Cl` [Compound 116]: the IC50 in test [1] (Homo sapiens) is below 5 µM; in test [2] (setting [3]), above 25 µM.
For `Cc1ncccc1C(=O)N1CCc2cc(-c3nc(NC(=O)Cc4ccc5c(c4)OCO5)sc3C)ccc21` [Compound 139], in that order: 5 to 25 µM and below 5 µM.
The corresponding values for `O=C(Cc1ccccc1)Nc1cccc(-c2ccc(N3CCCCC3)cc2)n1` [Compound 63] are above 25 µM and above 25 µM.
In the case of `Cc1cc(C(=O)Nc2ncc(Cc3ccc(C(F)(F)F)cc3)s2)nn1Cc1ccccn1` [Compound 193], the IC50 in test [1] (Homo sapiens) and in test [2] (setting [3]) was below 5 µM in each case.
For `Cc1ccccc1C(=O)N1CCc2cc(-c3nc(NC(=O)CC4CCN(C(=O)OC(C)(C)C)CC4)sc3C)ccc21` [Compound 60, tert-butyl 4-(2-((5-methyl-4-(1-(2-methylbenzoyl)indolin-5-yl)thiazol-2-yl)amino)-2-oxoethyl)piperidine-1-carboxylate], the IC50 in test [1] (Homo sapiens) and in test [2] (setting [3]) was below 5 µM in each case.
As for `Cc1ccccc1C(=O)N1CCc2cc(-c3nc(NC(=O)Cc4ccccc4)sc3C)ccc21` [Compound 8], the IC50 in test [1] (Homo sapiens) and in test [2] (setting [3]) was below 5 µM each time.
For the compound `O=C(Nc1ccnc(Cc2ccccc2)c1)c1ccc(-c2cccc([N+](=O)[O-])c2)o1` [Compound 177], the IC50 in test [1] (Homo sapiens) and in test [2] (setting [3]) was 5 to 25 µM each time.
On to `CN(C1COC1)S(=O)(=O)c1ccc(NC(=O)c2ccc(CN3CCc4ccccc4C3)cc2)cc1` [compound 173], for which the IC50 in test [1] (Homo sapiens) and in test [2] (setting [3]) was below 5 µM in each case.
For `CC1c2ccccc2CCN1Cc1ccc(C(=O)Nc2ccc(S(=O)(=O)N3CCOCC3)cc2)cc1` (stereo not drawn) [Compound 230], the IC50 in test [1] (Homo sapiens) and in test [2] (setting [3]) was below 5 µM each time.
For the compound `COc1ccc(CC(=O)Nc2nc(-c3ccc4c(c3)CCN4C(=O)c3ccnn3C)c(C)s2)cc1` [Compound 197], the IC50 in test [1] (Homo sapiens) and in test [2] (setting [3]) was below 5 µM throughout.
For `Cc1ccc(CC(=O)Nc2nc(-c3ccc4c(c3)CCN4S(=O)(=O)c3ccccc3C)c(C)s2)cc1` [Compound 133], the values for the IC50 in test [1] (Homo sapiens) and in test [2] (setting [3]) were below 5 µM and above 25 µM, respectively.
For `Cc1cnc(NC(=O)c2ccc(-c3cccc([N+](=O)[O-])c3)o2)s1` [Compound 67], in that order: 5 to 25 µM and above 25 µM.
With `CC1(C)CC2CC(C)(CN2S(=O)(=O)c2ccc(C(=O)Nc3cccc(S(=O)(=O)N4CCOCC4)c3)cc2)C1` (stereo not drawn) [compound 52], the IC50 in test [1] (Homo sapiens) and in test [2] (setting [3]) was below 5 µM each time.
